Data taken from paper PMC9952215, “Giving a Hand: Synthetic Peptides Boost the Antifungal Activity of Itraconazole against Cryptococcus neoformans” (Antibiotics, 2023).
Converted amounts (≈) assume the structure as drawn.

How the values were obtained:
C. neoformans [1] = settings: cited from earlier work; for MIC50 against C. neoformans, alone / concentration in the combination of ibuprofen and ITR: ref 17 (Rocha et al.); for concentration in the combination of ibuprofen and ITR: ibuprofen combined with ITR
Description: For example, […] et al. reported the combined activity against C. neoformans of the aminoglycoside K20 with ITR. […] In contrast, when combined, the concentration to reach the same activity decreases to 187 and 1 for K20 and ITR [16]. In another study, Rocha et al. evaluated the synergistic effect between ibuprofen and ITR against C. neoformans. […] However, the co ...

C. neoformans [2] = tested on: C. neoformans; design: method as in earlier work; settings: previously defined; ref 7 (Aguiar et al.); cited from earlier work
C. neoformans cells [3] = assay: Overproduction of reactive oxygen species (DCFH-DA, fluorescence microscopy, ImageJ counting); assay type: cell-based, Cryptococcus neoformans
Method: The ROS overproduction was evaluated according to the method Dias et al.. After incubation for 24 h, as described above, the samples were washed three times with sterile 0.15 M NaCl and centrifuged (5000× g 5 min at 4 °C) to remove the YPD medium. The analysis was conducted, as described, by PI assay. Next, 9 μL of 2',7' […] diacetate-DCFH-DA (Sigma, St. Louis, MI, USA)-was added and incubated in the dark for 30 min at room temperature (22 °C ± 2). Next, they were washed and centrifuged twice under the same conditions as those mentioned above. Then, the cryptococcal cells were observed under a fluorescence microscope (Olympus System BX 41, Tokyo, Japan), with an excitation wavelength of 488 nm and an emission wavelength of 525 nm. The fluorescent C. neoformans cells were counted using ImageJ software using the Cell Counter plugin, according to the methodology described by Aguiar et al.. The cells were counted in the bright and fluorescent field of the same picture. Cells presenting fluorescence were called positive cells, and those without fluorescence were called negative cells. […] The cells were calculated using the equation: number of positive cells × 100/number of cells in the bright field. The number of negative cells was calculated following the equation: number of cells in the bright field-number of positive cells. Three different images were used to count the cells.

[4] = tested on: C. neoformans (ATCC 32045); assay: Combined antifungal activity (growth inhibition, absorbance 600 nm); assay type: cell-based, Cryptococcus neoformans; settings: YPD, 10^6 cells mL^−1, 24 h, 30 °C, A600, mean ± SD
Method: The combined antifungal activity was evaluated as described in [11]. The combinations with SAMPs and itraconazole were constituted of peptides MIC50 [7] + itraconazole (ITR) 500 (1×) µg mL^−1, peptides [5×D] + ITR [1×D], peptides [10×D] + ITR [5×D], and peptides [10×D] + ITR [10×D]. The cells were grown on YPD agar for […], and cryptococcal cells were then resuspended in YPD medium and standardized at 10^6 cells mL^−1. The assay was performed in 96-well plates and incubated for 24 h at 30 °C. Then, the absorbance was measured at 600 nm using an automated microplate reader (Epoch, Biotek, Santa Clara, CA, USA). The best combinations were used to study the mechanisms of action. […] Experiments were performed in three biological replications, and each biological replication was performed with three technical replicates. The statistical analyses were performed using GraphPad Prism (version 5.01) for Microsoft Windows. All data obtained in the assays were compared using standard deviation and the one-way analysis of variance (ANOVA), followed by the Tukey test (p < 0.05).

C. neoformans cells [5] = assay: Cell membrane integrity / membrane pore formation (propidium iodide uptake, fluorescence microscopy, ImageJ counting); assay type: cell-based, Cryptococcus neoformans
Method: The cell membrane integrity of C. neoformans was evaluated as described in [7]. After incubation for 24 h, as described above, the samples were washed three times with sterile 0.15 M NaCl and centrifuged (5000× g 5 min at 4 °C) to remove the YPD medium. Then, the cells were incubated with propidium iodide (PI) for 30 min in the dark at room temperature (22 °C ± 2). Next, they were washed and centrifuged twice, under the same conditions as previously mentioned. […] The fluorescent C. neoformans cells were counted using ImageJ software using the Cell Counter plugin, according to the methodology described by Aguiar et al. […] The cells were counted in the bright and fluorescent field of the same picture. Cells presenting fluorescence were called positive cells, and those without fluorescence were called negative cells. […] The cells were calculated using the equation: number of positive cells × 100/number of cells in the bright field. The number of negative cells was calculated following the equation: number of cells in the bright field—number of positive cells. Three different images were used to count the cells.

SMILES | MIC50 against C. neoformans, alone (C. neoformans [1]; agent alone) [µg/mL] | concentration in the combination of ibuprofen and ITR (C. neoformans [1]) [µg/mL] | concentration to reach the same activity when combined (C. neoformans [1]; K20 combined with ITR, unit not given, ref 16 (Shrestha et al.)) | concentration presenting activity against C. neoformans, alone (C. neoformans [1]; agent alone, ref 16 (Shrestha et al.)) [µg/mL] | MIC50 against C. neoformans (C. neoformans [2]) [µg/mL] | DCFH-DA-fluorescent cells (C. neoformans cells [3]; ITR alone (dilution not stated), ImageJ count of three images) [%] | ROS accumulation (DCFH-DA fluorescence), qualitative (C. neoformans cells [3]; ITR alone, fluorescence images, Figure 2) | % of Inhibition of C. neoformans Growth ([4]; single agent at 1× (ITR 500; Mo-CBP3-PepII 25; RcAlb-PepII, RcAlb-PepIII, PepGAT, PepKAA 0.04 µg mL^−1)) [%] | % of Inhibition of C. neoformans Growth ([4]; single agent at 5×D (ITR 100; Mo-CBP3-PepII 5; other peptides 0.008 µg mL^−1)) [%] | % of Inhibition of C. neoformans Growth ([4]; single agent at 10×D (ITR 50; Mo-CBP3-PepII 2.5; other peptides 0.004 µg mL^−1)) [%] | positive PI-fluorescent cells (C. neoformans cells [5]; ITR alone (dilution not given; ITR 1× in Figure 1 text), ImageJ count of three images) [%] | membrane pore formation (PI red fluorescence), qualitative (C. neoformans cells [5]; single agent at 1×, fluorescence images, Figure 1)
CC(C)Cc1ccc(C(C)C(=O)O)cc1 (centres unmarked) [ibuprofen] | 512 | 16 | – | – | – | – | – | – | – | – | – | –
CCC(C)n1ncn(-c2ccc(N3CCN(c4ccc(OCC5COC(Cn6cncn6)(c6ccc(Cl)cc6Cl)O5)cc4)CC3)cc2)c1=O (centres unmarked) [ITR, itraconazole] | 500 | 125 | 1 | 780 | 500 (≈ 709 µM) | 0 | no ROS accumulation | 45.3 ± 0.021 | 12.2 ± 0.003 | 0 | 0 | no red fluorescence
